This is an account of results in ChEMBL document CHEMBL4020736, “Synthesis and biological evaluation of novel selective androgen receptor modulators (SARMs) Part III: Discovery of 4-(5-oxopyrrolidine-1-yl)benzonitrile derivative 2f as a clinical candidate” (Bioorg Med Chem, 2017).

A word on the Tmax: it is the time at which the peak concentration occurs. One may read the AUC(0-t) as exposure summed from dosing to a finite time, without extrapolation to infinity. Broadly, the MRT is the average time that molecules of a dose stay in the body. As usually defined, the IC50 is the concentration that gives 50% inhibition. The term clearance denotes a measure of how efficiently the substance is removed, as volume per time. What is called Cmax is the maximum level reached in the sampled fluid or tissue. The bioavailability is dose-corrected exposure relative to a reference, in per cent.

Data set [1] is described as follows: Tmax in Crl:CD(SD) rat at 1 mg/kg, po by LC-MS/MS analysis. The data set is classed as ADME, organism-based. The settings on record: in vivo.
Data set [2] can be described thus: Tmax in Beagle dog at 1 mg/kg, po by LC-MS/MS analysis. The data set is classed as ADME, organism-based, Canis lupus familiaris. The settings on record: in vivo.
Data set [3] concerns Rattus norvegicus. The data set is described as follows: Androgenic activity in castrated CD(SD)IGS rat assessed as effect on prostate weight at 0.15 to 15 mg/kg, po qd for 7 days co-treated with testosterone propionate by Harshberger assay. Type of data set: ADME, organism-based. The settings on record: in vivo, 168 h.
Data set [4] has as its system Canis familiaris. The data set is described as follows: Toxicity in iv dosed Beagle dog assessed as effect on mean blood pressure administered via single dose. The data set is classed as organism-based, Canis lupus familiaris. The note with it: in vivo.
A short description of data set [5]: AUC (0 to 24 hrs) in cynomolgus monkey at 1 mg/kg, po by LC-MS/MS analysis. Type of data set: ADME, organism-based, Macaca fascicularis. Set-up: dose 1 mg/kg, time < 24 hr, route oral. The settings on record: in vivo.
The nature of data set [6]: MRT in cynomolgus monkey at 0.1 mg/kg, iv by LC-MS/MS analysis. The settings on record: in vivo. Type of data set: ADME, organism-based, Macaca fascicularis.
In data set [7] the target is T1, Mineralocorticoid receptor (Homo sapiens, UniProt P08235).
T1 sequence (P08235 whole entry): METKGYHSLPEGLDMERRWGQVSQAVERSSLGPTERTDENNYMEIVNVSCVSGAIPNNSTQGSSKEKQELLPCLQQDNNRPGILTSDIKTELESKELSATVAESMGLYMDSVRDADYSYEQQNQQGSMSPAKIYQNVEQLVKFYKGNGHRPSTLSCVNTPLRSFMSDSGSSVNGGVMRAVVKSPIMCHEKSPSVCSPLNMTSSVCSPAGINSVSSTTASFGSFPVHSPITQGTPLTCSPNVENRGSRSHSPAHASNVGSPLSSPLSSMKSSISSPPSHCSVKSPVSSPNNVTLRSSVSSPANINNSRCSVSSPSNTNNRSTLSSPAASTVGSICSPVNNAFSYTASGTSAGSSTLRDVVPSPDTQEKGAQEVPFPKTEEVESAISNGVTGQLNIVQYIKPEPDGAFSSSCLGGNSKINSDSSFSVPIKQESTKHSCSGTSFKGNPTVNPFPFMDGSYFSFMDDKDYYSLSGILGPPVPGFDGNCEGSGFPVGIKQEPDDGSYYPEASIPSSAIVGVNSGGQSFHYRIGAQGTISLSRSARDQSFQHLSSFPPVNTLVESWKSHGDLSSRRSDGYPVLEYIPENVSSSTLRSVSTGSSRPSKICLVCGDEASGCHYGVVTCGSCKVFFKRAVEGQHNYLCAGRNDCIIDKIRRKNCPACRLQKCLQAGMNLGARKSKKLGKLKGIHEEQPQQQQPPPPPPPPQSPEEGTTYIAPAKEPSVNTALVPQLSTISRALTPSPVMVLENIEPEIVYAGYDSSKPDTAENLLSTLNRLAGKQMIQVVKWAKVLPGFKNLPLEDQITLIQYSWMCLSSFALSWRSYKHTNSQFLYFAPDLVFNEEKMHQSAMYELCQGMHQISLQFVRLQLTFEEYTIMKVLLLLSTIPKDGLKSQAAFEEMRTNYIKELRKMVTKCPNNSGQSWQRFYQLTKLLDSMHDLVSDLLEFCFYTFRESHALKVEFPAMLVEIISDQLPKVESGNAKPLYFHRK
The data set is described as follows: Binding affinity to MR (unknown origin).

Data set [8] can be described thus: MRT in cynomolgus monkey at 1 mg/kg, po by LC-MS/MS analysis. The data set is classed as ADME, organism-based, Macaca fascicularis. The settings on record: in vivo.
Data set [9] is described as follows: AUC (0 to 24 hrs) in cynomolgus monkey at 0.1 mg/kg, iv by LC-MS/MS analysis. The settings on record: in vivo. Further details: time < 24 hr, dose 0.1 mg/kg, route intravenous. The data set is classed as ADME, organism-based, Macaca fascicularis.
Data set [10] in a line: Clearance in human liver microsomes at 1 uM after 60 mins in presence of NADPH by UPLC analysis. The data set is classed as ADME, microsome. The settings on record: read-out: CLH. In general terms: Liver microsomes are a subcellular fraction often used to study metabolism.
Data set [11] relates to Rattus norvegicus. The data set is described as follows: Induction of sexual behavior in castrated CD(SD)IGS rat assessed as pseudopregnancy rate at 5 mg/kg, po qd for 21 days measured on day 18 to 21 relative to control. Type of data set: functional.
A short description of data set [12]: Total clearance in Beagle dog at 0.1 mg/kg, iv by LC-MS/MS analysis. The note with it: in vivo. Type of data set: ADME, organism-based, Canis lupus familiaris.
Data set [13] has as its system Canis familiaris. Kind of data set: Toxicity in iv dosed Beagle dog assessed as effect on heart rate administered via single dose. The data set is classed as organism-based, Canis lupus familiaris. The note with it: in vivo.
Data set [14] is described as follows: Cmax in Beagle dog at 1 mg/kg, po by LC-MS/MS analysis. The data set is classed as ADME, organism-based, Canis lupus familiaris. Set-up: dose 1 mg/kg, route oral. The note with it: in vivo.
For data set [15], the system named is Rattus norvegicus. Kind of data set: Induction of sexual behavior in castrated CD(SD)IGS rat assessed as pseudopregnancy rate at 0.5 mg/kg, po qd for 21 days measured on day 18 to 21 relative to control. The data set is classed as functional.
The nature of data set [16]: Cmax in Crl:CD(SD) rat at 1 mg/kg, po by LC-MS/MS analysis. The settings on record: in vivo. Set-up: dose 1 mg/kg, route oral. The data set is classed as ADME, organism-based.
Data set [17] is described as follows: Volume of distribution at steady state in Beagle dog at 0.1 mg/kg, iv by LC-MS/MS analysis. Type of data set: ADME, organism-based, Canis lupus familiaris. The settings on record: in vivo, read-out: Vdss.
Data set [18] is described as follows: Clearance in mouse liver microsomes at 1 uM after 60 mins in presence of NADPH by UPLC analysis. The data set is classed as ADME, microsome. The settings on record: read-out: CLH.
The nature of data set [19]: Oral bioavailability in Crl:CD(SD) rat at 1 mg/kg by LC-MS/MS analysis. Type of data set: ADME, organism-based. The note with it: in vivo.
A short description of data set [20]: Clearance in monkey liver microsomes at 1 uM after 60 mins in presence of NADPH by UPLC analysis. Type of data set: ADME, Macaca mulatta, microsome. The note with it: rhesus monkey, read-out: CLH.

For `CC[C@H]1[C@@H](O)CC(=O)N1c1ccc(C#N)c(C(F)(F)F)c1`, the time of peak concentration (Tmax) came to 0.5 h in data set [1] and 0.75 h in data set [2]. Moreover, the Activity entry in data set [3] is listed as “Non-Toxic”; in [4], “Non-Toxic”; in data set [11] it was 86%; in data set [13], “Non-Toxic”; in data set [15], 100%. The AUC(0-t) at 24 h in data set [5] is 558 ng·h/mL; in [9] it was 118 ng·h/mL. Further, the MRT in [6] stood at 1.72 h; in [8] it was 5.21 h. Further, in data set [7], the IC50 was more than 10 µM. The results for the microsomal CLint at 1 µM in [10], in data set [18] and in data set [20] were 1 µL/min/mg, 3 µL/min/mg and 5 µL/min/mg, respectively. The same molecule gave a clearance in data set [12] of 11.3 mL/min/kg. The figures for the Cmax in data set [14] and in [16] were 265 ng/mL and 218 ng/mL, respectively. Further, the Vd in data set [17] was found to be 3.3 L/kg. In addition, the bioavailability in data set [19] was 74.6%.
